The values that follow come from publication PMC10936414 (mBio, 2024).

Molecules are shown by their SMILES. pEC50: −log10 of the molar value. Where two headings read alike, the source gives them in different places. Residues, ends and D or L forms follow the SMILES beside them. *: point of attachment. Cbz = O=C(OCc1ccccc1)*

Data set [1] concerns VSV-SARS-CoV-2. The experiment in a line: organism not typed. Format: cell-based.
Data set [2] has as its system VSV. The experiment in a line: microbe, parasite or virus in culture. It counts as cell-based.
The subject of data set [3] is VSV. The note with it: ref [12]; cited from earlier work.
The next data set deals with MA104 cells. The note with it: treated 25 h, WST-8.
Data set [4] concerns VSV-SARS-CoV-2. Format: cell-based. The note with it: MA104, MOI of 3, 24 hpi.
The next data set relates to SARS-CoV. The note with it: ref [6]; cited from earlier work.
For the next data set, the system named is SARS-CoV-2-mNeonGreen. Briefly: SARS-CoV-2-mNeonGreen infection of Vero E6 cells. Format: cell-based.
For data set [5], the system named is VSV-SARS-CoV-2. Briefly: organism not typed. Format: cell-based. The source holds these as a separate data set.
Another data set deals with SARS-CoV-2. The note with it: ref [4], [7]; cited from earlier work.
A short description of a further data set: in vitro. As to conditions: African green monkey.
The mark [6] stands for this setting: MA104, read-out: EC50 against VSV-SARS-CoV-2, MA104 cells, pre-treated 1 h, 24 h infection, MOI = 1, GFP signal.
[7] abbreviates: Vesicular stomatitis virus, MA104, read-out: EC50 against VSV.
The mark [8] stands for this setting: MA104, read-out: EC50 against VSV-SARS-CoV-2 (Fig. S1), MA104 cells, treated 1 h prior, MOI of 0.5, 24 hpi.

On to `C[C@H]1CCC/C=C/[C@@H]2C[C@H](O)C[C@H]2[C@H](O)/C=C/C(=O)O1` [Brefeldin A, brefeldin A], for which the pEC50 (usually −log10 of the EC50, conventionally taken in molar units) in the data set on VSV-SARS-CoV-2 [1] (read-out: EC50 against VSV-SARS-CoV-2, MA104 cells, pre-treated 1 h, 24 h infection, MOI = 1, GFP signal) is more than 5.70.
On to `O=C(O)/C=C/c1ccc(O)c(O)c1` [Caffeic Acid, caffeic acid], for which the figures for the pEC50 in the data set with VSV-SARS-CoV-2 [1] (setting [6]) and with VSV [2] (setting [7]) were 5.33 and 5.17, respectively.
With `C/C=C/[C@H]1O[C@@](O)([C@@H](C)[C@H](O)[C@H](C)[C@H]2OC(=O)/C(OC)=C/C(C)=C/[C@@H](C)[C@@H](O)[C@@H](CC)[C@@H](O)[C@H](C)C/C(C)=C/C=C/[C@@H]2OC)C[C@@H](O[C@H]2C[C@@H](O)[C@H](OC(N)=O)[C@@H](C)O2)[C@@H]1C` [Concanamycin A, concanamycin A], the pEC50 with VSV-SARS-CoV-2 [1] (setting [6]) is more than 8.00; with VSV [2] (setting [7]) it was 5.26.
For `CCOC(=O)[C@H]1O[C@@H]1C(=O)N[C@@H](CC(C)C)C(=O)NCCC(C)C` [E-64d], the “sensitivity of VSV to treatment (in words)” value with VSV [3] is reported as “not be sensitive to E-64d treatment”. Besides, the CC50 in the data set on MA104 cells was more than 300 µM.
Consider `CCCCCCCCc1ccc(CCC(N)(CO)CO)cc1` [FTY720], for which the pEC50 with VSV-SARS-CoV-2 [1] (setting [6]) is 5.29; in the data set on VSV [2] (setting [7]), 4.78.
The like results for `CC(C)Cn1c(=O)n(C)c(=O)c2[nH]cnc21` [IBMX, 3-isobutyl-1-methylxanthine] were, in that order, more than 5.70 and more than 5.70.
With `Clc1ccc(N/N=C(\c2ccccc2)c2ccccn2)nc1` [JIB-04], the percentage of inhibition in the data set with VSV-SARS-CoV-2 [4] (JIB-04 0.3 µM, NTZ 0 µM) is recorded as 21%; with VSV-SARS-CoV-2 [4] (JIB-04 1 µM, NTZ 0 µM) it was 50%; in the data set on VSV-SARS-CoV-2 [4] (JIB-04 3 µM, NTZ 0 µM), 73%; with VSV-SARS-CoV-2 [4] (JIB-04 10 µM, NTZ 0 µM) it was 90%.
For `CC(=O)N1CCN(c2ccc(OCC3COC(Cn4ccnc4)(c4ccc(Cl)cc4Cl)O3)cc2)CC1` (stereo not shown) [Ketoconazole, ketoconazole], the pEC50 with VSV-SARS-CoV-2 [1] (setting [6]) is 4.52; with VSV [2] (setting [7]), less than 4.00.
Take `CC(C)C[C@@H](C=O)NC(=O)[C@H](CC(C)C)NC(=O)[C@H](CC(C)C)NC(=O)OCc1ccccc1` [MG132] (Cbz-Leu-Leu-Leu-aldehyde): the pEC50 with VSV-SARS-CoV-2 [1] (setting [6]) was 6.19. Besides, in the data set on VSV-SARS-CoV-2 [1] (MA104 cells), the “selectivity in antiviral activities, VSV EC50 compared to VSV-SARS-CoV-2 EC50” value (“selectivity in antiviral activities” below) was found to be 100 fold. Moreover, the “SARS-CoV replication (in words)” value in the data set on SARS-CoV is listed as “impair SARS-CoV replication”.
Turning to `CC(=O)Oc1ccccc1C(=O)Nc1ncc([N+](=O)[O-])s1` [Nitazoxanide, nitazoxanide], the negative logarithm of the EC50 (pEC50) with VSV-SARS-CoV-2 [1] (setting [8]) was 5.24; with VSV-SARS-CoV-2 [1] (setting [6]), 4.98; in the data set with SARS-CoV-2-mNeonGreen (Severe acute respiratory syndrome coronavirus 2, Vero C1008, read-out: EC50 against SARS-CoV-2-mNeonGreen), 5.31; with VSV [2] (setting [7]) it was 4.79. Besides, the “SI (selectivity index)” value with VSV-SARS-CoV-2 [1] (VSV-SARS-CoV-2, MA104 cells) was determined as 237; in the data set on SARS-CoV-2-mNeonGreen (SARS-CoV-2-mNeonGreen, Vero E6 cells) it was 167. Also, the percentage of inhibition in the data set with VSV-SARS-CoV-2 [4] (JIB-04 0 µM, NTZ 1 µM) was determined as 16%; in the data set on VSV-SARS-CoV-2 [4] (JIB-04 0 µM, NTZ 3 µM), 24%; in the data set on VSV-SARS-CoV-2 [4] (JIB-04 0 µM, NTZ 10 µM) it was 42%; in the data set with VSV-SARS-CoV-2 [4] (JIB-04 0 µM, NTZ 30 µM), 92%.
In the case of `COc1ccc2cc1Oc1ccc(cc1)C[C@H]1c3cc(c(OC)cc3CCN1C)Oc1c(OC)c(OC)cc3c1[C@H](C2)N(C)CC3` [Tetrandrine, tetrandrine], the pEC50 was 5.91 in the data set with VSV-SARS-CoV-2 [1] (setting [6]) and 4.63 in the data set with VSV [2] (setting [7]).
Consider `C/C=C(/C)C(=O)O[C@H]1C(C)=C2[C@H]([C@@H]1OC(=O)CCCCCCC)[C@@](C)(OC(C)=O)C[C@H](OC(=O)CCC)[C@@]1(O)[C@H]2OC(=O)[C@@]1(C)O` [Thapsigargin, thapsigargin], for which the pEC50 in the data set with VSV-SARS-CoV-2 [1] (setting [6]) is 6.66; in the data set on VSV [2] (setting [7]), 5.39.
`CC(C)[C@H](NC(=O)OCc1ccccc1)C(=O)N[C@H](C=O)Cc1ccccc1` [calpain inhibitor III] (Cbz-Val-Phe-aldehyde): in the data set on VSV-SARS-CoV-2 [1] (MA104 cells), the “selectivity in antiviral activities” value is given as “more than 30 fold”. Further, the pEC50 is 6.64 in the data set with VSV-SARS-CoV-2 [1] (MA104 cells, pre-treated 1 h, 24 h infection, MOI = 1, GFP signal, read-out: EC50 against VSV-SARS-CoV-2); more than 6.30 with VSV-SARS-CoV-2 [5] (Vero E6 cells, pre-treated 1 h, 24 h infection, read-out: EC50 against VSV-SARS-CoV-2 in Vero E6 cells); 4.97 in the data set on VSV [2] (read-out: EC50 against VSV). In addition, the CC50 with MA104 cells was more than 300 µM.
Take `CSCC[C@@H](C=O)NC(=O)[C@H](CC(C)C)NC(=O)[C@H](CC(C)C)NC(C)=O` [calpain inhibitor II] (Ac-Leu-Leu-Met-aldehyde): the “suppression of SARS-CoV-2 replication (in words)” value in the data set with SARS-CoV-2 is “suppressed SARS-CoV-2 replication”.
In the case of `CCCC[C@@H](C=O)NC(=O)[C@H](CC(C)C)NC(=O)OCc1ccccc1` [calpeptin], the pEC50 is 6.68 in the data set on VSV-SARS-CoV-2 [1] (setting [6]); more than 6.30 with VSV-SARS-CoV-2 [5] (Vero C1008, read-out: EC50 against VSV-SARS-CoV-2 in Vero E6 cells, Vero E6 cells, pre-treated 1 h, 24 h infection); 5.13 in the data set with VSV [2] (setting [7]). Besides, the “selectivity in antiviral activities” value in the data set with VSV-SARS-CoV-2 [1] (MA104 cells) is recorded as “more than 30 fold”. For the same compound, the “suppression of SARS-CoV-2 replication (in words)” value in the data set on SARS-CoV-2 is “suppressed SARS-CoV-2 replication”. This compound also registered a CC50 in the data set “in vitro” of 300 µM.
Consider `O=C(/C=C/c1ccc(O)c(O)c1)O[C@H](Cc1ccc(O)c(O)c1)C(=O)O` [rosmarinic acid], for which the pEC50 with VSV-SARS-CoV-2 [1] (setting [8]) is less than 4.00. The “inhibition of VSV-SARS-CoV-2 infection (in words)” value in the data set with VSV-SARS-CoV-2 [1] (MA104 cells) is listed as “did not inhibit VSV-SARS-CoV-2 infection”. The CC50 in “in vitro” is more than 300 µM.
